One assay concerns the target T1, CDK2/CycE (Homo sapiens, UniProt P24941).
T1 construct: GST; purchased ProQinase GmbH (Freiburg, Germany); host or cells: insect cells (Sf9)
In words: CDK2/CycE high ATP kinase assay (Method 2b, TR-FRET, 2 mM ATP). The class given is biochemical. As for the experimental part: 2b. CDK2/CycE High ATP Kinase Assay
CDK2/CycE-inhibitory activity of compounds of the present invention at 2 mM adenosine-tri-phosphate (ATP) was quantified employing the CDK2/CycE TR-FRET (TR-FRET=Time Resolved Fluorescence Energy Transfer) assay as described in the following paragraphs.
Recombinant fusion proteins of GST and human CDK2 and of GST and human CycE, expressed in insect cells (Sf9) and purified by Glutathion-Sepharose affinity chromatography, were purchase from ProQinase GmbH (Freiburg, Germany). As substrate for the kinase reaction biotinylated peptide biotin-Ttds-YISPLKSPYKISEG (C-terminus in amid form) was used which can be purchased e.g. form the company JERINI peptide technologies (Berlin, Germany). […]
The resulting mixture was incubated 1 h at 22° C. to allow the formation of complex between the phosphorylated biotinylated peptide and the detection reagents. Subsequently the amount of phosphorylated substrate was evaluated by measurement of the resonance energy transfer from the Eu-chelate to the streptavidine-XL. Therefore, the fluorescence emissions at 620 nm and 665 nm after excitation at 350 nm wer measured in a TR-FRET reader, e.g. a Rubystar (BMG Labtechnologies, Offenburg, Germany) or a Viewlux (Perkin-Elmer). […]

The test system of another assay is A2780 cells. In words: Proliferation assay (Method 3), A2780. Type of assay: cell-based. The following applies: A2780, 96 h; human ovarian carcinoma, 4 days, crystal violet; read-out: Inhibition of A2780 cell proliferation IC50. As for the experimental part: Cultivated tumour cells (HeLa, human cervical tumour cells, ATCC CCL-2; NCI-H460, human non-small cell lung carcinoma cells, ATCC HTB-177; A2780, human ovarian carcinoma cells, ECACC #93112519; DU 145, hormone-independent human prostate carcinoma cells, ATCC HTB-81; HeLa-MaTu-ADR, multidrug-resistant human cervical carcinoma cells, EPO-GmbH Berlin; Caco-2, human colorectal carcinoma cells, ATCC HTB-37; B16F10, mouse melanoma cells, ATCC CRL-6475) were plated at a density of 5,000 cells/well (DU145, HeLa-MaTu-ADR), 3,000 cells/well (NCI-H460, HeLa), 2,500 cells/well (A2780), 1,500 cells/well (Caco-2), or 1,000 cells/well (B16F10) in a 96-well multititer plate in 200 μL of their respective growth medium supplemented 10% fetal calf serum. […] Cell proliferation was determined by staining the cells with crystal violet: the cells were fixed by adding 20 μl/measuring point of an 11% glutaric aldehyde solution for 15 minutes at room temperature. […] The extinction was determined by photometry at a wavelength of 595 nm. The change of cell number, in percent, was calculated by normalization of the measured values to the extinction values of the zero-point plate (=0%) and the extinction of the untreated (0 μm) cells (=100%). […]

`CS(=O)(=O)Cc1ccnc(Nc2cc(-c3ccc(F)c4ccoc34)c(F)cn2)c1` [Example 1, 5-Fluoro-4-(4-fluoro-1-benzofuran-7-yl)-N-{4-[(methylsulfonyl)methyl]pyridin-2-yl}pyridin-2-amine]: the IC50 at CDK2/CycE came out at 535 nM.
On to `CS(=O)(=O)Cc1cc(F)nc(Nc2cc(-c3ccc(F)c4ccoc34)c(F)cn2)c1` [Example 2, 5-Fluoro-4-(4-fluoro-1-benzofuran-7-yl)-N-{6-fluoro-4-[(methylsulfonyl)methyl]pyridin-2-yl}pyridin-2-amine], for which the IC50 in the assay with A2780 cells stood at 24 nM; at CDK2/CycE it was 517 nM.
